Molecular target: KRAS G12C protein (Homo sapiens, UniProt P01116, G12C)
Experiment: Nucleotide exchange assay (Method III, KRAS G12C/Raf-RBD TR-FRET)
Type: biochemical
Settings: SOS1-mediated exchange of GDP for GTP, 18 hr compound incubation
Protocol: Method III. Inhibition of SOS1-mediated exchange of GDP for GTP on the KRAS G12C protein was measured in a biochemical assay that monitors association of KRAS G12C protein with the Ras-binding domain of Raf (Raf-RBD), where the association is coupled to exchange of GDP to GTP on the KRAS G12C protein. The assay was performed at WuXi AppTec (Shanghai, China). Compounds were serially diluted in 3-fold dilutions to 11 concentrations and spotted into the wells of an assay plate in a total volume of 150 nL DMSO per well. A 2× enzyme mix was prepared by diluting GDP-bound, His-tagged KRAS G12C to 25 nM in assay buffer. 10 μL/well of 2× enzyme mix was added to all wells, and the plate was sealed and incubated overnight (18 hr) at 23° C. 4×SOS1/GDP and 4×SOS1/GTP were prepared in assay buffer. 5 μL/well of 4×SOS1/GDP mix was added to negative control wells, 5 μL/well of 4×SOS1/GTP mix was added to the remaining wells, and the plate was further incubated at 23° C. for 1 hr. Finally, FLAG-tagged Raf-RBD is added to the reaction mixture along with a pair of FRET donor- and acceptor-conjugated antibodies specific for the FLAG-tagged Raf-RBD and His-tagged KRAS G12C proteins. A 4×Raf-RBD/Tb-anti-FLAG/D2-anti-His mix was prepared in assay buffer, and 5 μL/well of the mix was added to all wells, followed by incubation at room temperature for 2 hr. The TR-FRET signals, which increase with association of KRAS G12C and Raf-RBD, were measured on a Perkin Elmer Envision 2104 plate reader, and data were analyzed by non-linear regression to obtain IC50 values for inhibition by compounds. Table 2 includes results of the assay of Method III. ‘+++’ indicates IC50 values≤300 nM, ‘++’ indicates IC50 values between 300 nM-3 μM, and ‘+’ indicates IC50 values≥3 μM.

KRAS G12C protein, sequence (P01116 1-188 isoform P01116-2 G12C): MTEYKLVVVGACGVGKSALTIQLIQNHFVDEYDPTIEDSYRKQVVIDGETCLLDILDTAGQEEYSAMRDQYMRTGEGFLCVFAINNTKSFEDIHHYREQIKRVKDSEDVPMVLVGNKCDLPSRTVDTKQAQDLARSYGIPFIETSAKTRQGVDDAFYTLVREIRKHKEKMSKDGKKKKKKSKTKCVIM

Compound | IC50 [µM]
C=C(F)C(=O)N1CCN(c2nc(NCCC(=O)N(C)C)nc3c2COC(c2cccc4cccc(Cl)c24)C3)C[C@@H]1CC#N (single isomer, unassigned) [232 (Isomer A)] | 0.3 to 3
C=C(F)C(=O)N1CCN(c2nc(OC[C@@H]3CCCN3C)nc3c2COC(c2cccc4cccc(Cl)c24)C3)[C@@H](C)C1 (single isomer, unassigned) [44 (Isomer B)] | 0.3 to 3
C=C(F)C(=O)N1CCN(c2nc(OC3CCN(C)CC3)nc3c2COC(c2cccc4cccc(Cl)c24)C3)C[C@@H]1CC#N (single isomer, unassigned) [234 (Isomer A)] | ≥ 3
C=C(F)C(=O)N1CCN(c2nc(OC[C@@H]3CCCN3C)nc3c2COC(c2cccc4cccc(Cl)c24)C3(C)C)C[C@@H]1CC#N (single isomer, unassigned) [258 (Isomer A)] | ≥ 3
C=C(F)C(=O)N1CCN(c2nc(OC[C@@H]3CCCN3C)nc3c2COC(c2c(C)ccc4[nH]ncc24)C3)C[C@@H]1CC#N (single isomer, unassigned) [52 (Isomer A)] | 0.3 to 3
C=C(F)C(=O)N1CCN(c2nc(OC[C@@H]3CCCN3C)nc3c2CC=C(c2cccc4cccc(Cl)c24)O3)C[C@H]1C [Compound 154, 1-((R)-4-(7-(8-chloronaphthalen-1-yl)-2-(((S)-1-methylpyrrolidin-2-yl)methoxy)-5H-pyrano[2,3-d]pyrimidin-4-yl)-2-methylpiperazin-1-yl)-2-fluoroprop-2-en-1-one] | ≥ 3
C=C(F)C(=O)N1CCN(c2nc(OC[C@@H]3CCCN3C)nc3c2COC(c2cccc4cccc(Cl)c24)C3)CC1(C)C (single isomer, unassigned) [238 (Isomer B)] | ≥ 3
CN(C)C/C=C/C(=O)N1CCN(c2nc(OC[C@@H]3CCCN3C)nc3c2COC(c2cccc4cccc(Cl)c24)C3)C[C@@H]1CC#N (single isomer, unassigned) [242 (Isomer A)] | ≥ 3
C=C(F)C(=O)N1C[C@H](C)N(c2nc(OC[C@@H]3CCCN3C)nc3c2COC(c2cccc4cccc(Cl)c24)C3)C[C@H]1C (single isomer, unassigned) [235 (Isomer B)] | ≥ 3
C=C(F)C(=O)N1CCN(c2nc(NC3CCN(S(C)(=O)=O)CC3)nc3c2COC(c2cccc4cccc(Cl)c24)C3)C[C@@H]1CC#N (single isomer, unassigned) [231 (Isomer A)] | ≥ 3
C=CC(=O)N1CCN(c2nc(OC[C@@H]3CCCN3C)nc3c2COC(c2cccc4cccc(Cl)c24)C3)C[C@@H]1CC#N (single isomer, unassigned) [38 (Isomer A)] | 0.3 to 3
C=C(F)C(=O)N1CCN(c2nc(Nc3cnn(C)c3)nc3c2COC(c2cccc4cccc(Cl)c24)C3)C[C@@H]1CC#N (single isomer, unassigned) [233 (Isomer A)] | ≥ 3
C=C(F)C(=O)N1CCN(c2nc(OC[C@@H]3CCCN3C)nc3c2COC(c2cccc4cccc(Cl)c24)C3)C[C@H]1C (single isomer, unassigned) [42 (Isomer A)] | ≥ 3
C=C(F)C(=O)N1CCN(c2nc(Oc3cccc4c3CN(C)CC4)nc3c2COC(c2cccc4cccc(Cl)c24)C3)C[C@@H]1CC#N (single isomer, unassigned) [249 (Isomer A)] | 0.3 to 3
